In patent publication US10093656B2, “Fused-ring or tricyclic aryl pyrimidine compound used as kinase inhibitor” (NANJING SANHOME PHARMACEUTICAL CO., LTD, priority 2015, dated 2018):

Legend:
[1] = tested on: NCI-H1975 cells EGFR L858R/T790M; experiment: NCI-H1975 cell viability assay (Cell Titer-Glo, 6 days); type: cell-based; conditions: Homo sapiens, 144 h
Experimental: (§1) RPMI1640, fetal bovine serum, penicillin/streptomycin solution were purchased from Life Technology (Madison, Wis.). Cell Titer-Glo luminescent cell viability reagents were purchased from Promega (Madison, Wis.). A431 cell line and NCI-H1975 cell line were purchased from European Collection of Cell Cultures (ECACC). Plate Reader Instrument: Envision (PerkinElmer).
(§2) 384-Well plates, 300 of A431 cells and NCI-H1975 cells were inoculated per well, a volume of which was 45 μL. And the plates were incubated overnight in a CO2 incubator at 37° C. The test compound was diluted 3-fold to obtain 10 dose concentrations, the final concentrations of which were from 10 μM to 0.508 nM, two wells. The middle plates were filled with 49 μL of medium per well. 1 μL of compound in the gradient dilution compound plates was transferred to the middle plates and mixed well. And then 5 μL liquid in the middle plates was taken to the cell plates. The cells were incubated in a CO2 incubator for 6 days. After 6 days, 25 μL of detection reagents was added. And then the mixture was incubated at room temperature for 10 minutes and the plates were read by Envision.
(§3) The reading is converted to the suppression rate by the following formula (%) (Max-Sample)/(Max-Min)*100%. IC50 Data was measured by Four-parameter curve fitting (Model 205 in XLFIT5, IDBS).

EGFR wild type = molecular target: T1, EGFR wild type (Homo sapiens, UniProt P00533); experiment: Wild-type EGFR enzyme HTRF inhibition assay; type: biochemical; conditions: 25 μM ATP, read-out: EGFR WT IC50
T1 construct: purchased Life technology (Madison, Wis.)
T1 sequence (P00533 25-1210): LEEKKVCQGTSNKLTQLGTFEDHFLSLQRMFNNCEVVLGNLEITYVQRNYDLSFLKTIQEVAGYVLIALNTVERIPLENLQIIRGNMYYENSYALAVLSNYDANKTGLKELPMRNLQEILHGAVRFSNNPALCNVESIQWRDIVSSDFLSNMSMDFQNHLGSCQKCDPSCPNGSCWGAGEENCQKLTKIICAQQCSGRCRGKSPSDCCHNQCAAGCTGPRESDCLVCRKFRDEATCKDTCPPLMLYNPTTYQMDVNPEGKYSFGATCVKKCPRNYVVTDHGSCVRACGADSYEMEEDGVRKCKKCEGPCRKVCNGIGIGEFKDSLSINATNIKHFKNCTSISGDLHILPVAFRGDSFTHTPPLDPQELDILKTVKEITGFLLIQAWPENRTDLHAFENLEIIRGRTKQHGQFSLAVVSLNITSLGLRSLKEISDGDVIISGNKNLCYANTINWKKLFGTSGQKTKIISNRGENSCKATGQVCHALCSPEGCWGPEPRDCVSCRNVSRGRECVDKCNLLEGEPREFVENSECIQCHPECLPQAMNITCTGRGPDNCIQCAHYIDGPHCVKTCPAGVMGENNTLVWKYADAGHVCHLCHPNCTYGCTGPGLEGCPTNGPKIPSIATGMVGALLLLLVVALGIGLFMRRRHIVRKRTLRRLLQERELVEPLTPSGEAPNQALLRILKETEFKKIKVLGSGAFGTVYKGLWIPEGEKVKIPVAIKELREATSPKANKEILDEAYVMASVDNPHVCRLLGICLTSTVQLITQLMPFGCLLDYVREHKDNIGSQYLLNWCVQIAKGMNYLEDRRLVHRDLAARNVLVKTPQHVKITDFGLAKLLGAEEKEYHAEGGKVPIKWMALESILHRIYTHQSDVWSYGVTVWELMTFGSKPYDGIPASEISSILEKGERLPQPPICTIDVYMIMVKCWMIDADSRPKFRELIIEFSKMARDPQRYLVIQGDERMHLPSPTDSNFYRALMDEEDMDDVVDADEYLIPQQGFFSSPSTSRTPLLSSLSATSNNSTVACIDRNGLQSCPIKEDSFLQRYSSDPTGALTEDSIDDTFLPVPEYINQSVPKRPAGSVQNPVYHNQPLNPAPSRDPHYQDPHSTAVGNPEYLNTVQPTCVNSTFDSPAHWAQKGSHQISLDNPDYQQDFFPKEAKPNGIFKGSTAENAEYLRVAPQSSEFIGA
Experimental: (§4) Enzyme: EGFR wild type, EGFR T790M/L858R, EGFR T790M and INSR were purchased from Life technology (Madison, Wis.), EGFR d746-750/T790M was purchased from Carna Biosciences (Japan).
(§5) HTRF Kit was purchased from Cis-Bio International which contained the Eu-labeled TK1 antibody, XL665 and biotin-labeled TK1 polypeptide substrates.
(§6) Detecting instrument: Envision (PerkinElmer).
(§7) The test compound was diluted 3-fold to obtain 10 doses of which the final concentration was from 300 nM to 0.015 nM.
Wild-Type EGFR Enzyme Reaction Mixture System:
0.05 nM Wild-type EGFR, 1 μM biotin-TK1 peptide, 25 μM ATP enzyme buffer, a total of which was 10 μL. The reaction plate was white Proxiplate 384-Plus plate (PerkinElmer) and the mixture was reacted at 23° C. for 60 minutes.
(§8) Reaction Detection: 10 μL of detection reagent containing Antibody 2 nM and XL665 62.5 nM was added, and the reagent was incubated at 23° C. for 60 minutes. The plates were read by Envision.
(§9) The reading is converted to the suppression rate (%) by the following formula […]/(Max-Min)*100%. IC50 Data was measured by four-parameter curve fitting (Model 205 in XLFITS, IDBS).

A431 cells EGFR WT = experiment: A431 cell viability assay (Cell Titer-Glo, 6 days); type: cell-based, human; conditions: for IC50: Homo sapiens, A-431, 144 h, A431 cells, 6 days; for A431:NCI-H1975 (ratio): ratio of cell IC50 A431 to NCI-H1975
Experimental: as §1, §2, §3

EGFR T790M/L858R = molecular target: T2, EGFR T790M/L858R (Homo sapiens, UniProt P00533, L858R/T790M); experiment: EGFR T790M/L858R enzyme HTRF inhibition assay; type: biochemical; conditions: 20 μM ATP, read-out: EGFR L858R/T79M IC50
T2 construct: purchased Life technology (Madison, Wis.)
T2 sequence (P00533 25-1210 T790M/L858R): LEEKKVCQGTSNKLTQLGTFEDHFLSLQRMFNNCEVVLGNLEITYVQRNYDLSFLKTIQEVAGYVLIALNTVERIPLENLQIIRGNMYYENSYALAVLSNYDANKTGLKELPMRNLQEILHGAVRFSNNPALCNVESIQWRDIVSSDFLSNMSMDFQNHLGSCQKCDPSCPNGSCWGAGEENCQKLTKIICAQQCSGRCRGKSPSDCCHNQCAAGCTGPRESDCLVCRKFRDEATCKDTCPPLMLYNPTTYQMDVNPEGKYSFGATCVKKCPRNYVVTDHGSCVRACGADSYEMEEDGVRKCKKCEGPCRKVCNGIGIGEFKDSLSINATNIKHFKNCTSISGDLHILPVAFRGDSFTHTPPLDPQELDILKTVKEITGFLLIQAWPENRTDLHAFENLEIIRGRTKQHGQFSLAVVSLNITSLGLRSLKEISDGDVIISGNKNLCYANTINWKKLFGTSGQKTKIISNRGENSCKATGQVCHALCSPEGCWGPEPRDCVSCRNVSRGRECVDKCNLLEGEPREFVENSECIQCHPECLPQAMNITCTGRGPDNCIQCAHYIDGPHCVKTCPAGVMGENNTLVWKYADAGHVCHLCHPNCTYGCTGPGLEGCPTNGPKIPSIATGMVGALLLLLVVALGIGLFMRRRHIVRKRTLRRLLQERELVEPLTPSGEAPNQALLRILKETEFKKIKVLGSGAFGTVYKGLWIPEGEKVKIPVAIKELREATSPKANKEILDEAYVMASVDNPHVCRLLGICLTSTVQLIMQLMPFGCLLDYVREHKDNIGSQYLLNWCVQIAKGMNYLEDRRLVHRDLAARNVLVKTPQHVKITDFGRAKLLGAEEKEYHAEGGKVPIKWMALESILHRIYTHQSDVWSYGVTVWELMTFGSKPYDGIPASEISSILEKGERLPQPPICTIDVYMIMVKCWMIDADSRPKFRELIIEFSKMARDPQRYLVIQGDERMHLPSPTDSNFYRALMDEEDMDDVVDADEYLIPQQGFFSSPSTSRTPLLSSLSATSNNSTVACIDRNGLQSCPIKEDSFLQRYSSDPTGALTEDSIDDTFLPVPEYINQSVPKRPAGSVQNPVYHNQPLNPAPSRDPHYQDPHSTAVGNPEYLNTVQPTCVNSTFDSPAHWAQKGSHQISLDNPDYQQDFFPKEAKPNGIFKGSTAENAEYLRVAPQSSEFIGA
Experimental: as §4, §5, §6, §7
EGFR T790M/L858R Enzyme Reaction Mixture System:
0.04 nM EGFR T790M/L858R, 1 μM biotin-TK1 peptide, 20 μM ATP enzyme buffer, a total of which was 10 μL. The reaction plate was white Proxiplate 384-Plus plate (PerkinElmer) and the mixture was reacted at 23° C. for 60 minutes.
as §8, §9

EGFR d746-750/T790M = molecular target: T3, EGFR d746-750/T790M (Homo sapiens, UniProt P00533, DEL746-750/T790M); experiment: EGFR d746-750/T790M enzyme HTRF inhibition assay; type: biochemical; conditions: 40 μM ATP
T3 construct: purchased Carna Biosciences (Japan)
T3 sequence (P00533 with tags, fused parts or gaps DEL746-750/T790M limits assumed): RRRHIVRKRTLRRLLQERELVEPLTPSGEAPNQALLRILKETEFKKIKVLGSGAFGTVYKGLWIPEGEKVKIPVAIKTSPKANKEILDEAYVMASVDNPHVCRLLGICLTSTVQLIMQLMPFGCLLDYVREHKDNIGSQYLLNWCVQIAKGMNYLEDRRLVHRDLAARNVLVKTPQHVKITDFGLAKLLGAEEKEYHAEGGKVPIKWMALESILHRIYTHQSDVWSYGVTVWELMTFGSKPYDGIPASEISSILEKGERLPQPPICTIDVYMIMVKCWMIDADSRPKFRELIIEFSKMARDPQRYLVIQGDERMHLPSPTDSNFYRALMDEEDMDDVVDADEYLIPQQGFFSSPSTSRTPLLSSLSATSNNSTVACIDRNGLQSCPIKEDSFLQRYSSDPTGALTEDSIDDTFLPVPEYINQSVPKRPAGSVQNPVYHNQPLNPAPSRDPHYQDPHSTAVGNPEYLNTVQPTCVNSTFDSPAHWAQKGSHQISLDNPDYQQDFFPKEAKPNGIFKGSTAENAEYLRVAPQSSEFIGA
Experimental: as §4, §5, §6, §7
EGFR d746-750/T790M Enzyme Reaction Mixture System:
0.025 nM EGFR d746-750/T790M, 1 μM biotin-TK1 peptide, 40 μM ATP enzyme buffer, a total of which was 10 μL. The reaction plate was white Proxiplate 384-Plus plate (PerkinElmer) and the mixture was reacted at 23° C. for 60 minutes.
as §8, §9

IC50 [1] [µM]	IC50 (EGFR wild type) [µM]	IC50 (A431 cells EGFR WT) [µM]	IC50 (EGFR T790M/L858R) [µM]	IC50 (EGFR d746-750/T790M) [µM]	SMILES	A431:NCI-H1975 (ratio) (A431 cells EGFR WT)
4.75	0.00431	> 10	0.00055	0.00067	C=CC(=O)Nc1cc(Nc2nccc(-c3c4n(c5ccccc35)CCC4)n2)c(OC)cc1N1CC(N(C)C)C1 [Embodiment 2, N-(5-((4-(2,3-Dihydro-1H-pyrrolo[1,2-a]indol-9-yl)pyrimidin-2-yl)amino)-2-(3-(dimethylamino)azetidin-1-yl)-4-methoxyphenyl)acrylamide]	>2.1
0.019	0.00728	2.67	0.00093	0.00097	C=CC(=O)Nc1cc(Nc2nccc(-c3c4n(c5ccccc35)CCC4)n2)c(OC)cc1N(C)CCN1CCCC1 [Embodiment 5]	140.6
0.063	–	1.57	–	–	C=CC(=O)Nc1cc(Nc2nccc(-c3c4n(c5ccccc35)CCOC4)n2)c(OC)cc1N(C)CCNC(C)C [Embodiment 23, N-(5-((4-(3,4-Dihydro-1H-[1,4]oxazino[4,3-a]indol-10-yl)pyrimidin-2-yl)amino)-2-((2-(isopropylamino)ethyl)(methyl)amino)-4-methoxyphenyl)acrylamide]	25
0.013	0.0006	0.134	0.00027	0.00033	C=CC(=O)Nc1cc(Nc2nccc(-c3c4n(c5ccccc35)CC(F)(F)CC4)n2)c(OC)cc1N(C)CCN(C)C [Embodiment 14, N-(5-((4-(7,7-Difluoro-8,9-dihydro-6H-pyrido[1,2-a]indol-10-yl)pyrimidin-2-yl)amino)-2-((2-(dimethylamino)ethyl)(methyl)amino)-4-methoxyphenyl)acrylamide]	10.3
0.434	0.06	4.62	0.00325	0.0027	C=CC(=O)Nc1cc(Nc2nccc(-c3c4n(c5ccccc35)CCC4)n2)c(OC)cc1N1CCN(C)CC1 [Embodiment 4, 2-(2-Methoxy-4-(N-methyl)piperazine-5-acrylamidoanilino)-4-(3-(1,2,3-dihydropyrrolo[1,2-a]indol))pyrimidine]	10.6
0.283	0.0275	2.26	0.00219	0.00189	C=CC(=O)Nc1cc(Nc2nccc(-c3c4n(c5ccccc35)CCC4)n2)c(OC)cc1CCCN(C)C [Embodiment 10]	8.0
4.33	0.0203	> 10	0.00307	0.00329	C=CC(=O)Nc1cc(Nc2nccc(-c3c4n(c5ccccc35)CCC4)n2)c(OC)cc1N1CCC(N(C)C)C1 (stereo not drawn) [Embodiment 6, N-(5-((4-(2,3-Dihydro-1H-pyrrolo[1,2-a]indol-9-yl)pyrimidin-2-yl)amino)-2-(3-(dimethylamino)pyrrolidin-1-yl)-4-methoxyphenyl)acrylamide]	>2.1
0.102	–	2.21	–	–	C=CC(=O)Nc1cc(Nc2nccc(-c3c4n(c5ccccc35)CCOC4)n2)c(OC)cc1N(C)CCN1CCC1 [Embodiment 26, N-(2-((2-(Azetidin-1-yl)ethyl)(methyl)amino)-5-((4-(3,4-dihydro-1H-[1,4]oxazino[4,3-a]indol-10-yl)pyrimidin-2-yl)amino)-4-methoxyphenyl)acrylamide]	22

The next lines start with the molecule.

SMILES	IC50 [1] [µM]	IC50 (EGFR wild type) [µM]	IC50 (A431 cells EGFR WT) [µM]	IC50 (EGFR T790M/L858R) [µM]	IC50 (EGFR d746-750/T790M) [µM]	A431:NCI-H1975 (ratio) (A431 cells EGFR WT)
C=CC(=O)Nc1cc(Nc2ncc(F)c(-c3c4n(c5ccccc35)CCOC4)n2)c(OC)cc1N(C)CCNC [Embodiment 31, N-(5-((4-(3,4-Dihydro-1H-[1,4]oxazino[4,3-a]indol-10-yl)-5-fluoropyrimidin-2-yl)amino)-4-methoxy-2-(methyl(2-(methylamino)ethyl)amino)phenyl)acrylamide]	0.096	0.002	1.29	0.0002	0.0003	13.4
C=CC(=O)Nc1cc(Nc2nccc(-c3c4n(c5ccccc35)CCOC4)n2)c(OC)cc1N(CC)CCN(C)CC [Embodiment 22, N-(5-((4-(3,4-Dihydro-1H-[1,4]oxazino[4,3-a]indol-10-yl)pyrimidin-2-yl)amino)-2-(ethyl(2-(ethyl(methyl)amino)ethyl)amino)-4-methoxyphenyl)acrylamide]	0.0504	–	1.33	–	–	26
C=CC(=O)Nc1cc(Nc2ncc(F)c(-c3c4n(c5ncccc35)CCOC4)n2)c(OC)cc1N(C)CCN(C)C [Embodiment 39, N-(5-((4-(8,9-Dihydro-6H-pyrido[2,3]pyrrolo[4,5-α][1,4]oxazin-5-yl)-5-fluoropyrimidin-2-yl)amino)-2-((2-(dimethylamino)ethyl)(methyl)amino)-4-methoxyphenyl)acrylamide]	0.288	0.0053	1.57	0.0005	0.0006	5.5
C=CC(=O)Nc1cc(Nc2nccc(-c3c4n(c5ccccc35)CCOC4)n2)c(OC(C)C)cc1N(C)CCN(C)C [Embodiment 29, N-(5-((4-(3,4-Dihydro-1H-[1,4]oxazino[4,3-a]indol-10-yl)pyrimidin-2-yl)amino)-2-((2-(dimethylamino)ethyl)(methyl)amino)-4-isopropoxyphenyl)acrylamide]	0.025	0.0051	1.18	0.00038	0.00038	47
C=CC(=O)Nc1cc(Nc2ncc(F)c(-c3c4n(c5ccccc35)C(C)(C)COC4)n2)c(OC)cc1N(C)CCN(C)C.CS(=O)(=O)O [Embodiment 36, N-(5-((4-(4,4-Dimethyl-3,4-dihydro-1H-[1,4]oxazino[4,3-a]indol-10-yl)-5-fluoropyrimidin-2-yl)amino)-2-((2-(dimethylamino)ethyl)(methyl)amino)-4-methoxyphenyl)acrylamide methanesulfonate]	0.175	0.0027	0.438	0.0013	0.0013	2.5
C=CC(=O)Nc1cc(Nc2nccc(-c3c4n(c5ccccc35)CCOC4)n2)c(OC)cc1N(C)C(C)CN(C)C (stereo not drawn) [Embodiment 20, N-(5-((4-(3,4-Dihydro-1H-[1,4]oxazino[4,3-a]indol-10-yl)pyrimidin-2-yl)amino)-2-((1-(dimethylamino)propan-2-yl)(methyl)amino)-4-methoxyphenyl)acrylamide]	0.004	0.00066	0.164	0.0002	0.00017	41.0
C=CC(=O)Nc1cc(Nc2nccc(-c3c4n(c5ccccc35)CCOC4)n2)c(OC)cc1N(CC)CCNCC [Embodiment 21, N-(5-((4-(3,4-Dihydro-1H-[1,4]oxazino[4,3-a]indol-10-yl)pyrimidin-2-yl)amino)-2-(ethyl(2-(ethylamino)ethyl)amino)-4-methoxyphenyl)acrylamide]	0.05	–	1.44	–	–	29
